Patent US11046686B2, “Thiadiazole IRAK4 compounds” (Gilead Sciences, Inc., priority 2018, dated 2021)
Like-named read-outs stand apart in the source and are kept apart here.

Columns and labels:
IRAK4 enzyme = IRAK4 enzyme (Homo sapiens (Human), UniProt Q9NWZ3); assay: IRAK4 Biochemical Assay (TR-FRET, STK1 KinEASE)
Experimental: IRAK4 enzyme (Carna Biosciences, Chuo-ku, Kobe, Japan) activity was measured by detecting phosphorylated peptide substrate formation using an antibody against the phosphorylated peptide substrate. This is a time-resolved fluorescence resonance energy transfer (TR-FRET) immunoassay, based on the STK1 KinEASE Assay (Cisbio, Bedford, Mass.). The assay was designed as a simple two-step, endpoint assay (a 5 μl enzyme reaction followed by 5 μl stop and detect Solution) performed in ProxiPlate-384 Plus plates (Perkin Elmer, Waltham, Mass.). […] Compounds diluted in DMSO were spotted into 384 well plates using a Labcyte® Echo 550 Liquid Handling System prior to addition of IRAK4 enzyme and peptide substrate. Reaction solutions were delivered using a Multi-Flo (Bio-Tek Instruments). The enzyme and peptide solution was incubated with compound for 15 minutes at room temp before the reaction was initiated by the addition of ATP. The standard 5 μl reaction mixture contained 500 μM ATP, […] peptide (STK1 Peptide), 0.75 nM of IRAK4 in reaction buffer (50 mM HEPES, pH 7.0, 0.02% NaN3, 0.01% BSA, 0.1 mM Orthovanadate, 5 mM […], 0.025% NP-40, 1 mM DTT). After 120 min of incubation at room temperature, 5 μl of Stop and Detect Solution (1:100 Cryptate labeled anti-phosphorylated peptide antibody solution and 125 nM Tracer in a 50 mM HEPES pH 7.0 detection buffer containing sufficient EDTA) was added. The plate was then further incubated for 60 minutes at room temperature and read on Envision 2103 Multilabeled reader (PerkinElmer) with excitation/emission/FRET emission at 340 nm/615 nm665 nm, respectively. Fluorescence intensities at 615 nm and 665 nm emission wavelengths were expressed as aratio (665 nm/615 nm). Percentage of inhibition was calculated as below: % Inhibition=100×(Ratiosample−Ratio0% Inhibition)/(Ratio100% Inhibition−Ratio0% Inhibition)
The 0% inhibition value comes from control wells lacking inhibitor.

TNFα = assay: IRAK4 Monocyte TNFα Cell Based Assay; set-up: species or system human; conditions: read-out: EC50 MONO TNF HTRF
In short: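 TNFα release quantified by HTRF (cryptate/XL665 antibody pair, overnight at RT) after 1 h compound pre-incubation (0.1% DMSO) and 4 h LPS challenge at 50 pg/ml, 37 °C, 5,000 monocytes per well. Signal ratio normalised between unstimulated (0%) and stimulated (100%) controls.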

[1] = second part of Table 2, compounds 33-343, unit inferred, read-out: IC50 IRAK4-HTBS
[2] = human monocytes, second part of Table 2, compounds 33-343, unit inferred
[3] = Homo sapiens, Monocyte, human monocytes, second part of Table 2, compounds 33-343, unit inferred

Sequence of IRAK4 enzyme (Q9NWZ3 whole entry): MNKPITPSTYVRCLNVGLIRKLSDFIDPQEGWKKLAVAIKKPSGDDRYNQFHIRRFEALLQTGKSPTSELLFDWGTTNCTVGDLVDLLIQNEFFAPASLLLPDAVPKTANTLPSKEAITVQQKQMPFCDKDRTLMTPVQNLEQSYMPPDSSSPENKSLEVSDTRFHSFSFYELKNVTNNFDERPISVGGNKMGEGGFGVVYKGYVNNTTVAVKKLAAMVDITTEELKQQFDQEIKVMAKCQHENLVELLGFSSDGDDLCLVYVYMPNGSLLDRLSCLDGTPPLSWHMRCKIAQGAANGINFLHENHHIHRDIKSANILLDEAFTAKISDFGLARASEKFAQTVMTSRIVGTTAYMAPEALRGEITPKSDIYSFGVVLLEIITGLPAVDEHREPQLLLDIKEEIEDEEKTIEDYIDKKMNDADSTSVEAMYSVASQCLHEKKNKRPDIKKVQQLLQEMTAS

Row | Compound | IC50 (IRAK4 enzyme; [1]) [nM] | EC50 (TNFα; [2]) [nM] | IC50 (IRAK4 enzyme) [nM] | EC50 (TNFα; [3]) [nM] | EC50 (TNFα; Homo sapiens, Monocyte) [nM]
1 | CC(C)Nc1cc(-c2ccc3cc(C#N)cnn23)ncc1-c1nnc([C@@H]2C[C@H]2C(C)(C)O)s1 (single isomer, unassigned; isomer 1) [132 Isomer 1] | 1.29 | 12.5 |  |  | 
2 | CC(C)(O)[C@H]1C[C@@H]1c1nnc(-c2cnc(-c3ccc4cc(C#N)cnn34)cc2NC2COC2)s1 (single isomer, unassigned; isomer 1) [136 Isomer 1] | 0.57 | 4.2 |  |  | 
3 | CC(=O)N[C@@H]1CCN(c2nnc(-c3cnc(-c4ccc5cc(C#N)cnn45)cc3NC3(C)COC3)s2)CC1(F)F (single isomer, unassigned; isomer 1) [147 Isomer 1] | 0.63 | 8.2 |  |  | 
4 | CC(C)Nc1cc(-c2ccc3cc(C#N)cnn23)ncc1-c1nnc([C@H]2C[C@@H]2C(C)(C)O)s1 (single isomer, unassigned; isomer 2) [132 Isomer 2] | 1.3 | 15.2 |  |  | 
5 | CC(C)(O)[C@@H]1C[C@H]1c1nnc(-c2cnc(-c3ccc4cc(C#N)cnn34)cc2NC2COC2)s1 (single isomer, unassigned; isomer 2) [136 Isomer 2] | 0.53 | 4 |  |  | 
6 | CC(=O)N[C@H]1CCN(c2nnc(-c3cnc(-c4ccc5cc(C#N)cnn45)cc3NC3(C)COC3)s2)CC1(F)F (single isomer, unassigned; isomer 2) [147 Isomer 2] | 0.62 | 24.2 |  |  | 
7 | CC(C)(O)[C@@H]1C[C@@H]1c1nnc(-c2cnc(-c3ccc4cc(C#N)cnn34)cc2NC2COC2)s1 (single isomer, unassigned; isomer 3) [136 Isomer 3] | 0.64 | 39 |  |  | 
8 | CC(C)(O)[C@H]1C[C@H]1c1nnc(-c2cnc(-c3ccc4cc(C#N)cnn34)cc2NC2COC2)s1 (single isomer, unassigned; isomer 4) [136 Isomer 4] | 0.74 | 30.5 |  |  | 
9 | CC(=O)NC1CC2(C1)CN(c1nnc(-c3cnc(-c4ccc5cc(C#N)cnn45)cc3NC(C)C)s1)C2 [Compound 231, N-(2-(5-(6-(3-cyanopyrrolo[1,2-b]pyridazin-7-yl)-4-(isopropylamino)pyridin-3-yl)-1,3,4-thiadiazol-2-yl)-2-azaspiro[3.3]heptan-6-yl)acetamide] |  |  | 1.17 | 22.2 | 
10 | CC(C)Nc1cc(-c2ccc3cc(C#N)cnn23)ncc1-c1nnc(N2CC3CC(C2)O3)s1 [Compound 233, 7-(5-(5-(6-oxa-3-azabicyclo[3.1.1]heptan-3-yl)-1,3,4-thiadiazol-2-yl)-4-(isopropylamino)pyridin-2-yl)pyrrolo[1,2-b]pyridazine-3-carbonitrile] |  |  | 0.35 |  | 6.4
11 | CC(C)Nc1cc(-c2ccc3cc(C#N)cnn23)ncc1-c1nnc(N2C3COCC2C3)s1 [Compound 234, 7-(5-(5-(3-oxa-6-azabicyclo[3.1.1]heptan-6-yl)-1,3,4-thiadiazol-2-yl)-4-(isopropylamino)pyridin-2-yl)pyrrolo[1,2-b]pyridazine-3-carbonitrile] |  |  | 1.28 | 178 | 
12 | CC(C)Nc1cc(-c2ccc3cc(C#N)cnn23)ncc1-c1nnc(N2CC3CCC(C2)O3)s1 [Compound 235, 7-(5-(5-(8-oxa-3-azabicyclo[3.2.1]octan-3-yl)-1,3,4-thiadiazol-2-yl)-4-(isopropylamino)pyridin-2-yl)pyrrolo[1,2-b]pyridazine-3-carbonitrile] |  |  | 0.48 | 4.4 | 
13 | CC(C)Nc1cc(-c2ccc3cc(C#N)cnn23)ncc1-c1nnc(N2C3CCC2COC3)s1 [Compound 236, 7-(5-(5-(3-oxa-8-azabicyclo[3.2.1]octan-8-yl)-1,3,4-thiadiazol-2-yl)-4-(isopropylamino)pyridin-2-yl)pyrrolo[1,2-b]pyridazine-3-carbonitrile] |  |  | 0.83 |  | 25.8
14 | CC(C)Nc1cc(-c2ccc3cc(C#N)cnn23)ncc1-c1nnc(N2C[C@H]3C[C@@H]2CO3)s1 [Compound 237, 7-(5-(5-((1R,4R)-2-oxa-5-azabicyclo[2.2.1]heptan-5-yl)-1,3,4-thiadiazol-2-yl)-4-(isopropylamino)pyridin-2-yl)pyrrolo[1,2-b]pyridazine-3-carbonitrile] |  |  | 0.14 | 8.4 | 
15 | CC(C)Nc1cc(-c2ccc3cc(C#N)cnn23)ncc1-c1nnc(N2C[C@@H]3C[C@H]2CO3)s1 [Compound 238, 7-(5-(5-((1S,4S)-2-oxa-5-azabicyclo[2.2.1]heptan-5-yl)-1,3,4-thiadiazol-2-yl)-4-(isopropylamino)pyridin-2-yl)pyrrolo[1,2-b]pyridazine-3-carbonitrile] |  |  | 0.46 | 12.6 | 
16 | CC(=O)N[C@H]1CC[C@H](c2nnc(-c3cnc(-c4ccc5cc(C#N)cnn45)cc3N[C@H]3CC[C@@H](O)CC3)s2)CC1 [Compound 244, N-((1R,4r)-4-(5-(6-(3-cyanopyrrolo[1,2-b]pyridazin-7-yl)-4-(((1s,4S)-4-hydroxycyclohexyl)amino)pyridin-3-yl)-1,3,4-thiadiazol-2-yl)cyclohexyl)acetamide] | 0.93 | 9.1 |  |  | 
17 | CC(=O)NC12CC(c3nnc(-c4cnc(-c5ccc6cc(C#N)cnn56)cc4NC(C)C)s3)(C1)C2 [Compound 246, N-(3-(5-(6-(3-cyanopyrrolo[1,2-b]pyridazin-7-yl)-4-(isopropylamino)pyridin-3-yl)-1,3,4-thiadiazol-2-yl)bicyclo[1.1.1]pentan-1-yl)acetamide] |  |  | 1.37 | 43.3 | 
18 | CC(=O)N[C@H]1CC[C@H](c2nnc(-c3cnc(-c4ccc5cc(C#N)cnn45)cc3NC(C)C)s2)C1 [Compound 247, N-((1S,3S)-3-(5-(6-(3-cyanopyrrolo[1,2-b]pyridazin-7-yl)-4-(isopropylamino)pyridin-3-yl)-1,3,4-thiadiazol-2-yl)cyclopentyl)acetamide] |  |  | 0.8 | 25.1 | 
19 | CC(=O)N[C@@H]1CC[C@H](c2nnc(-c3cnc(-c4ccc5cc(C#N)cnn45)cc3NC(C)C)s2)C1 [Compound 248, N-((1R,3S)-3-(5-(6-(3-cyanopyrrolo[1,2-b]pyridazin-7-yl)-4-(isopropylamino)pyridin-3-yl)-1,3,4-thiadiazol-2-yl)cyclopentyl)acetamide] |  |  | 0.93 | 16.3 | 
20 | CC(=O)NC1CCN(c2nnc(-c3cnc(-c4ccc5cc(C#N)cnn45)cc3NC(C)C)s2)[C@@H](C)C1 (stereo partly drawn) [Compound 249, N-((2S)-1-(5-(6-(3-cyanopyrrolo[1,2-b]pyridazin-7-yl)-4-(isopropylamino)pyridin-3-yl)-1,3,4-thiadiazol-2-yl)-2-methylpiperidin-4-yl)acetamide] |  |  | 0.91 | 8.9 | 
21 | CC(=O)N[C@@H]1CCN(c2nnc(-c3cnc(-c4ccc5cc(C#N)cnn45)cc3NC(C)C)s2)C[C@@H]1F [Compound 250, N-((3S,4R)-1-(5-(6-(3-cyanopyrrolo[1,2-b]pyridazin-7-yl)-4-(isopropylamino)pyridin-3-yl)-1,3,4-thiadiazol-2-yl)-3-fluoropiperidin-4-yl)acetamide] |  |  | 1.17 | 8.3 | 
22 | CC(=O)NC1CCN(c2nnc(-c3cnc(-c4ccc5cc(C#N)cnn45)cc3NC(C)C)s2)CC1(F)F (stereo not drawn) [Compound 251, N-(1-(5-(6-(3-cyanopyrrolo[1,2-b]pyridazin-7-yl)-4-(isopropylamino)pyridin-3-yl)-1,3,4-thiadiazol-2-yl)-3,3-difluoropiperidin-4-yl)acetamide] |  |  | 0.48 | 4.4 | 
23 | CC(C)Nc1cc(-c2ccc3cc(C#N)cnn23)ncc1-c1nnc(N2CC3(COC3)C2)s1 [Compound 252, 7-(5-(5-(2-oxa-6-azaspiro[3.3]heptan-6-yl)-1,3,4-thiadiazol-2-yl)-4-(isopropylamino)pyridin-2-yl)pyrrolo[1,2-b]pyridazine-3-carbonitrile] |  |  | 0.29 | 7 | 
24 | N#Cc1cnn2c(-c3cc(NC4CCOCC4)c(-c4nnc(N5CC6CCC(C5)O6)s4)cn3)ccc2c1 [Compound 256, 7-(5-(5-(8-oxa-3-azabicyclo[3.2.1]octan-3-yl)-1,3,4-thiadiazol-2-yl)-4-((tetrahydro-2H-pyran-4-yl)amino)pyridin-2-yl)pyrrolo[1,2-b]pyridazine-3-carbonitrile] |  |  | 0.68 | 4.6 | 
